These results are taken from patent US20180237441A1, “Chemical Compounds” (GlaxoSmithKline Intellectual Property (No.2) Limited, priority 2015, published 2018).

The target in one assay is T1, PERK (Homo sapiens, UniProt Q9NZJ5).
T1 sequence (Q9NZJ5 30-1116): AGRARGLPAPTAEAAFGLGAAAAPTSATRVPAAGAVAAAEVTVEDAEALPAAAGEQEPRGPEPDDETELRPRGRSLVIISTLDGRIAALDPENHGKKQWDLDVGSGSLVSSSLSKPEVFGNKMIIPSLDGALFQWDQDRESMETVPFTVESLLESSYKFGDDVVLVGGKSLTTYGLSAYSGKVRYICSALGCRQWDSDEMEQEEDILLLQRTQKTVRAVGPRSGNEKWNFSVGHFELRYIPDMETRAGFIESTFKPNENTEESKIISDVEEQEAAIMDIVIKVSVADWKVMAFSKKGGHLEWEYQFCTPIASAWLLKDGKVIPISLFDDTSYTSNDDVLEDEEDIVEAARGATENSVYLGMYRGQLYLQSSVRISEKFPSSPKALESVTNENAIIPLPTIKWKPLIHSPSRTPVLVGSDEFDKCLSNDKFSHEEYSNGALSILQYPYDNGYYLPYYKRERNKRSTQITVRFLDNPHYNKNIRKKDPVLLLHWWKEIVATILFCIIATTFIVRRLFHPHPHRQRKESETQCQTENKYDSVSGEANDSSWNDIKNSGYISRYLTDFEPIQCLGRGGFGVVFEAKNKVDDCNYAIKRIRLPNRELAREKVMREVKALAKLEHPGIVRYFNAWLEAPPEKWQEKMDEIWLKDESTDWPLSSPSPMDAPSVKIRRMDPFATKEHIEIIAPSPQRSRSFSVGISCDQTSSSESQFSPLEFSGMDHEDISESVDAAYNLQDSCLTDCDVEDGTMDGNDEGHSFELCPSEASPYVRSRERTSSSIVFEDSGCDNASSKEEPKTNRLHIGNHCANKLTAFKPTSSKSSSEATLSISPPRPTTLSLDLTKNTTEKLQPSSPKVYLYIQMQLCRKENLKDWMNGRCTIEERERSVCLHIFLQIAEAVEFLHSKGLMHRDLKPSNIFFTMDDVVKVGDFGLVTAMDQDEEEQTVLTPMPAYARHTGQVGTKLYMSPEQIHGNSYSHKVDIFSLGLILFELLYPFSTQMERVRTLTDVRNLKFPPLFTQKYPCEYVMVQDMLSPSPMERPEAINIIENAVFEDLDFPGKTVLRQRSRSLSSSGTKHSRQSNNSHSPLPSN
Nature of the assay: PERK enzyme assay (HTRF). The class given is biochemical. The note with it: PERK Enzyme (500 μM ATP) IC50; at least one experimental run; read-out: PERK Activity. A digest of the protocol:
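GST-PERK (0.75 nM final) pre-incubated 30–60 min with compound (≤1% DMSO) in HEPES pH 7.5/CHAPS/MgCl2/DTT, then 500 μM ATP and 40 nM biotin-eIF2α added for 60 min. EDTA quench; HTRF detection of phospho-eIF2α (Eu anti-rabbit/streptavidin-APC) read after 2 h; IC50 from concentration series.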
(In TR-FRET formats the signal depends on donor and acceptor labels being close together.)
On to `Cn1cc(-c2ccc(N3CC(C4CCCCC4)CC3=O)cc2F)c2c(N)ncnc21` (stereo not drawn) [Example 6, 1-(4-(4-Amino-7-methyl-7H-pyrrolo[2,3-d]pyrimidin-5-yl)-3-fluorophenyl)-4-cyclohexyl pyrrolidin-2-one], for which the IC50 was greater than 1000 nM.
Still for that read-out and setting: with `CN1C(=O)N(c2ccc(-c3cn(C4CC4)c4ncnc(N)c34)c(F)c2)CC1c1cc(F)cc(F)c1F` (single isomer, unassigned) [Example 142, 1-(4-(4-amino-7-cyclopropyl-7H-pyrrolo[2,3-d]pyrimidin-5-yl)-3-fluorophenyl)-3-methyl-4-(2,3,5-trifluorophenyl)imidazolidin-2-one] the figure was less than 100 nM; with `Cc1nc(N)c2c(-c3ccc(N4CC(c5cc(F)ccc5F)N(C)C4=O)cc3F)cn(C)c2n1` (stereo not drawn) [Example 15, 1-(4-(4-amino-2,7-dimethyl-7H-pyrrolo[2,3-d]pyrimidin-5-yl)-3-fluorophenyl)-4-(2,5-difluorophenyl)-3-methylimidazolidin-2-one], less than 100 nM; with `Cc1cc(C)cc(C2CC(=O)N(c3ccc(-c4cn(C)c5ncnc(N)c45)c(F)c3)C2)c1` (stereo not drawn) [Example 30, 1-(4-(4-amino-7-methyl-7H-pyrrolo[2,3-d]pyrimidin-5-yl)-3-fluorophenyl)-4-(3,5-dimethylphenyl)pyrrolidin-2-one], less than 100 nM.
For `CN1C(=O)N(c2ccc(-c3cn(C)c4ncnc(N)c34)c(F)c2)CC1c1cc(C2CC2)ccc1F` (stereo not drawn) [Example 49, 1-(4-(4-amino-7-methyl-7H-pyrrolo[2,3-d]pyrimidin-5-yl)-3-fluorophenyl)-4-(5-cyclopropyl-2-fluorophenyl)-3-methylimidazolidin-2-one], the IC50 was in the range of 100 to 1000 nM.

The subject of the next assay is prion infected mice.
Assay: not given
The note with it: cited from earlier work.
As for `Cn1cc(-c2ccc3c(c2)CCN3C(=O)Cc2cccc(C(F)(F)F)c2)c2c(N)ncnc21` [GSK2606414, 7-methyl-5-(1-{[3-(trifluoromethyl)phenyl]acetyl}-2,3-dihydro-1H-indol-5-yl)-7H-pyrrolo[2,3-d]pyrimidin-4-amine], the “neuroprotective effect and clinical signs of disease” value was “provide a neuroprotective effect and prevent clinical signs of disease”.
